# Reference: patent US20240116985A1, “STAPLED PEPTIDES AND METHODS THEREOF” (priority 2020, published 2024)
# Test: CHI Log D procedure
# Format: physicochemical
# Conditions: pH 7.4
row,Structure (SMILES),CHI Log D
1,"CC(=O)N[C@@H](Cc1ccccc1)C(=O)N[C@@H](CC(=O)O)C(=O)N[C@@H](C)C(=O)N[C@]1(C)CCCCCCC=CCOC(=O)N2CC[C@@](C(=O)N[C@@H](Cc3ccccc3)C(=O)N[C@@H](Cc3c[nH]c4ccccc34)C(=O)N[C@@H](CCC(N)=O)C(N)=O)(C2)NC(=O)[C@H](CO)NC(=O)[C@H](Cc2ccccc2)NC(=O)[C@H](C)NC(=O)[C@H](C)NC(=O)[C@H](CC(=O)O)NC(=O)[C@H](CC(=O)O)NC1=O [I-163, Ac-Phe-Asp-Ala-R8-Asp-Asp-Ala-Ala-Phe-Ser-PyrS-Phe-Trp-Gln-NH2]",1.29
2,"CC(=O)N[C@@H](Cc1ccccc1)C(=O)N[C@@H](CC(=O)O)C(=O)N[C@@H](C)C(=O)N[C@]1(C)CCCCCCC=CCOC(=O)N2CC[C@@](C(=O)N[C@@H](Cc3ccccc3)C(=O)N[C@@H](Cc3c[nH]c4ccccc34)C(=O)N[C@@H](CCC(N)=O)C(N)=O)(C2)NC(=O)[C@H](CO)NC(=O)[C@H](Cc2ccccc2)NC(=O)[C@H](C)NC(=O)[C@H](C)NC(=O)[C@H](CC(=O)O)NC(=O)[C@H](CC(=O)O)NC1=O [I-164, Ac-Phe-Asp-Ala-R8-Asp-Asp-Ala-Ala-Phe-Ser-PyrS-Phe-Trp-Gln-NH2]",1.359
3,"CC(=O)N1CCC[C@]12CC=CCCCC1(CCCC=CCCCCCC[C@@](C)(C(=O)N[C@@H](Cc3ccccc3)C(=O)N[C@@H](Cc3c[nH]c4ccc(C5CC5)cc34)C(=O)N[C@@H](CCC(N)=O)C(N)=O)NC(=O)[C@H](C(C)C)NC(=O)[C@H](Cc3ccccc3)NC(=O)[C@H](C)NC(=O)[C@H](C)NC(=O)[C@H](CCC(=O)O)NC(=O)[C@H](CC(=O)O)NC1=O)NC(=O)[C@H](C)NC(=O)[C@H](CC(=O)O)NC2=O (stereo partly drawn) [I-170, Ac-PL3-Asp-Ala-B5-Asp-Glu-Ala-Ala-Phe-Val-S8-Phe-5CpW-Gln-NH2]",2.138
4,"CC(=O)N1CCC[C@]12CC=CCCCC1(CCCC=CCCCCCC[C@@](C)(C(=O)N[C@@H](Cc3ccccc3)C(=O)N[C@@H](Cc3c[nH]c4ccccc34)C(=O)N[C@@H](CCC(N)=O)C(N)=O)NC(=O)[C@H](C(C)C)NC(=O)[C@H](Cc3ccccc3)NC(=O)[C@H](C)NC(=O)[C@H](C)NC(=O)[C@H](CCC(=O)O)NC(=O)[C@H](CCc3ccccc3)NC1=O)NC(=O)[C@H](C)NC(=O)[C@H](CC(=O)O)NC2=O (stereo partly drawn) [I-196, Ac-PL3-Asp-Ala-B5-hPhe-Glu-Ala-Ala-Phe-Val-S8-Phe-Trp-Gln-NH2]",3.711
5,"CC(=O)N1CCC[C@]12CC=CCCCC1(CCCC=CCCCCCC[C@@](C)(C(=O)N[C@@H](Cc3ccc(F)c(F)c3)C(=O)N[C@@H](Cc3c[nH]c4ccccc34)C(=O)N[C@@H](CCC(N)=O)C(N)=O)NC(=O)[C@H](C(C)C)NC(=O)[C@H](Cc3ccccc3)NC(=O)[C@H](C)NC(=O)[C@H](C)NC(=O)[C@H](CC(=O)O)NC(=O)[C@H](CC(=O)O)NC1=O)NC(=O)[C@H](C)NC(=O)[C@H](CC(=O)O)NC2=O (stereo partly drawn) [I-262, Ac-PL3-Asp-Ala-B5-Asp-Asp-Ala-Ala-Phe-Val-S8-34FF-Trp-Gln-NH2]",2.106

# Same assay, conditions: pH 7.4, CHI Log D
row,chromatographic logD,Structure (SMILES)
1,2.98,"CC(=O)N1CCC[C@]12CC=CCCCC1(CCCC=CCCCCCC[C@@](C)(C(=O)N[C@@H](Cc3ccccc3)C(=O)N[C@@H](Cc3c[nH]c4ccccc34)C(=O)N[C@@H](CCC(N)=O)C(N)=O)NC(=O)[C@H](C(C)C)NC(=O)[C@H](Cc3ccccc3)NC(=O)[C@H](C)NC(=O)[C@H](C)NC(=O)[C@H](CCc3ccccc3)NC(=O)[C@H](CC(=O)O)NC1=O)NC(=O)[C@H](C)NC(=O)[C@H](CC(=O)O)NC2=O (stereo partly drawn) [I-195, Ac-PL3-Asp-Ala-B5-Asp-hPhe-Ala-Ala-Phe-Val-S8-Phe-Trp-Gln-NH2]"
2,2.62,"CC(=O)N1CCC[C@]12CC=CCCCC1(CCCC=CCCCCCC[C@@](C)(C(=O)N[C@@H](Cc3ccccc3)C(=O)N[C@@H](Cc3c[nH]c4ccccc34)C(=O)N[C@@H](CCC(N)=O)C(N)=O)NC(=O)[C@H](C(C)C)NC(=O)[C@H](Cc3ccccc3)NC(=O)[C@H](C)NC(=O)[C@H](C)NC(=O)[C@H](CCC(=O)O)NC(=O)[C@H](CC(=O)O)NC1=O)NC(=O)[C@H](C)NC(=O)[C@H](Cc1ccc(O)cc1)NC2=O (stereo partly drawn) [I-202, Ac-PL3-Tyr-Ala-B5-Asp-Glu-Ala-Ala-Phe-Val-S8-Phe-Trp-Gln-NH2]"
3,3.09,"CC(=O)N1CCC[C@]12CC=CCCCC1(CCCC=CCCCCCC[C@@](C)(C(=O)N[C@@H](Cc3ccccc3)C(=O)N[C@@H](Cc3c[nH]c4ccccc34)C(=O)N[C@@H](CCC(N)=O)C(N)=O)NC(=O)[C@H](C(C)C)NC(=O)[C@H](Cc3ccccc3)NC(=O)[C@H](C)NC(=O)[C@H](C)NC(=O)[C@H](CCC(=O)O)NC(=O)[C@H](CC(=O)O)NC1=O)NC(=O)[C@H](C)NC(=O)[C@H](Cc1cccc(C)c1)NC2=O (stereo partly drawn) [I-203, Ac-PL3-3MeF-Ala-B5-Asp-Glu-Ala-Ala-Phe-Val-S8-Phe-Trp-Gln-NH2]"
4,2.98,"CC(=O)N1CCC[C@]12CC=CCCCC1(CCCC=CCCCCCC[C@@](C)(C(=O)N[C@@H](Cc3ccccc3)C(=O)N[C@@H](Cc3c[nH]c4ccccc34)C(=O)N[C@@H](CCC(N)=O)C(N)=O)NC(=O)[C@H](C(C)C)NC(=O)[C@H](Cc3ccccc3)NC(=O)[C@H](C)NC(=O)[C@H](C)NC(=O)[C@H](CCC(=O)O)NC(=O)[C@H](CC(=O)O)NC1=O)NC(=O)[C@H](C)NC(=O)[C@H](Cc1cccc(F)c1)NC2=O (stereo partly drawn) [I-204, Ac-PL3-3FF-Ala-B5-Asp-Glu-Ala-Ala-Phe-Val-S8-Phe-Trp-Gln-NH2]"
5,2.82,"CC(=O)N1CCC[C@]12CC=CCCCC1(CCCC=CCCCCCC[C@@](C)(C(=O)N[C@@H](Cc3ccccc3)C(=O)N[C@@H](Cc3c[nH]c4ccccc34)C(=O)N[C@@H](CCC(N)=O)C(N)=O)NC(=O)[C@H](C(C)C)NC(=O)[C@H](Cc3ccccc3)NC(=O)[C@H](C)NC(=O)[C@H](C)NC(=O)[C@H](CCC(=O)O)NC(=O)[C@H](Cc3cccnc3)NC1=O)NC(=O)[C@H](C)NC(=O)[C@H](CC(=O)O)NC2=O (stereo partly drawn) [I-213, Ac-PL3-Asp-Ala-B5-3pyrA-Glu-Ala-Ala-Phe-Val-S8-Phe-Trp-Gln-NH2]"
6,2.7,"CC(=O)N1CCC[C@]12CC=CCCCC1(CCCC=CCCCCCC[C@@](C)(C(=O)N[C@@H](Cc3ccccc3)C(=O)N[C@@H](Cc3c[nH]c4ccccc34)C(=O)N[C@@H](CCC(N)=O)C(N)=O)NC(=O)[C@H](C(C)C)NC(=O)[C@H](Cc3ccccc3)NC(=O)[C@H](C)NC(=O)[C@H](C)NC(=O)[C@H](CCC(=O)O)NC(=O)[C@H](Cc3ccncc3)NC1=O)NC(=O)[C@H](C)NC(=O)[C@H](CC(=O)O)NC2=O (stereo partly drawn) [I-214, Ac-PL3-Asp-Ala-B5-4pyrA-Glu-Ala-Ala-Phe-Val-S8-Phe-Trp-Gln-NH2]"
7,2.98,"CC(=O)N1CCC[C@]12CC=CCCCC1(CCCC=CCCCCCC[C@@](C)(C(=O)N[C@@H](Cc3ccccc3)C(=O)N[C@@H](Cc3c[nH]c4ccccc34)C(=O)N[C@@H](CCC(N)=O)C(N)=O)NC(=O)[C@H](C(C)C)NC(=O)[C@H](Cc3ccccc3)NC(=O)[C@H](C)NC(=O)[C@H](C)NC(=O)[C@H](CCC(=O)O)NC(=O)[C@H](Cc3ccccn3)NC1=O)NC(=O)[C@H](C)NC(=O)[C@H](CC(=O)O)NC2=O (stereo partly drawn) [I-230, Ac-PL3-Asp-Ala-B5-2pyrA-Glu-Ala-Ala-Phe-Val-S8-Phe-Trp-Gln-NH2]"
8,3.03,"CC(=O)N1CCC[C@]12CC=CCCCC1(CCCC=CCCCCCC[C@@](C)(C(=O)N[C@@H](Cc3ccccc3)C(=O)N[C@@H](Cc3c[nH]c4ccccc34)C(=O)N[C@@H](CCC(N)=O)C(N)=O)NC(=O)[C@H](C(C)C)NC(=O)[C@H](Cc3ccccc3)NC(=O)[C@H](C)NC(=O)[C@H](C)NC(=O)[C@H](Cc3cccc4ccccc34)NC(=O)[C@H](CC(=O)O)NC1=O)NC(=O)[C@H](C)NC(=O)[C@H](CC(=O)O)NC2=O (stereo partly drawn) [I-234, Ac-PL3-Asp-Ala-B5-Asp-1NapA-Ala-Ala-Phe-Val-S8-Phe-Trp-Gln-NH2]"
9,3.2,"CC(=O)N1CCC[C@]12CC=CCCCC1(CCCC=CCCCCCC[C@@](C)(C(=O)N[C@@H](Cc3ccccc3)C(=O)N[C@@H](Cc3c[nH]c4ccccc34)C(=O)N[C@@H](CCC(N)=O)C(N)=O)NC(=O)[C@H](C(C)C)NC(=O)[C@H](Cc3ccccc3)NC(=O)[C@H](C)NC(=O)[C@H](C)NC(=O)[C@H](Cc3ccc(-c4ccccc4)cc3)NC(=O)[C@H](CC(=O)O)NC1=O)NC(=O)[C@H](C)NC(=O)[C@H](CC(=O)O)NC2=O (stereo partly drawn) [I-235, Ac-PL3-Asp-Ala-B5-Asp-Bip-Ala-Ala-Phe-Val-S8-Phe-Trp-Gln-NH2]"
10,2.89,"CC(=O)N1CCC[C@]12CC=CCCCC1(CCCC=CCCCCCC[C@@](C)(C(=O)N[C@@H](Cc3ccccc3)C(=O)N[C@@H](Cc3c[nH]c4ccccc34)C(=O)N[C@@H](CCC(N)=O)C(N)=O)NC(=O)[C@H](C(C)C)NC(=O)[C@H](Cc3ccccc3)NC(=O)[C@H](C)NC(=O)[C@H](C)NC(=O)[C@H](Cc3ccc(F)cc3)NC(=O)[C@H](CC(=O)O)NC1=O)NC(=O)[C@H](C)NC(=O)[C@H](CC(=O)O)NC2=O (stereo partly drawn) [I-258, Ac-PL3-Asp-Ala-B5-Asp-4FF-Ala-Ala-Phe-Val-S8-Phe-Trp-Gln-NH2]"

# More lines, now with the values behind:
row,Structure (SMILES),chromatographic logD
1,"CC(=O)N1CCC[C@]12CC=CCCCC1(CCCC=CCCCCCC[C@@](C)(C(=O)N[C@@H](Cc3c(F)c(F)c(F)c(F)c3F)C(=O)N[C@@H](Cc3c[nH]c4ccccc34)C(=O)N[C@@H](CCC(N)=O)C(N)=O)NC(=O)[C@H](C(C)C)NC(=O)[C@H](Cc3ccccc3)NC(=O)[C@H](C)NC(=O)[C@H](C)NC(=O)[C@H](CCC(=O)O)NC(=O)[C@H](CC(=O)O)NC1=O)NC(=O)[C@H](C)NC(=O)[C@H](CC(=O)O)NC2=O (stereo partly drawn) [I-183, Ac-PL3-Asp-Ala-B5-Asp-Glu-Ala-Ala-Phe-Val-S8-Pff-Trp-Gln-NH2]",2.21
2,"CCCC[C@@H]1NC(=O)C2(CCCC=CCCCCCC[C@@](C)(C(=O)N[C@@H](Cc3ccccc3)C(=O)N[C@@H](Cc3c[nH]c4ccccc34)C(=O)N[C@@H](CCC(N)=O)C(N)=O)NC(=O)[C@H](C(C)C)NC(=O)[C@H](Cc3ccccc3)NC(=O)[C@H](C)NC(=O)[C@H](C)NC(=O)[C@H](CCC(=O)O)NC1=O)CCCC=CC[C@]1(CCCN1C(C)=O)C(=O)N[C@@H](CC(=O)O)C(=O)N[C@@H](C)C(=O)N2 (stereo partly drawn) [I-205, Ac-PL3-Asp-Ala-B5-nLeu-Glu-Ala-Ala-Phe-Val-S8-Phe-Trp-Gln-NH2]",3.84
